Results reported in patent publication US4181657A, “2-Aminooctahydroindolo[2,3-a]quinolizines useful in treating cardiovascular disorders” (Miles Laboratories, Inc., priority 1978, dated 1980).
Counter-ions that a name gives are not always drawn.

Legend:
Format in all cases: in vivo
[1] = test system: ventricular arrhythmia produced by chloroform; test: Antiarrhythmic activity: protection from chloroform-induced ventricular arrhythmia in mice (Lawson model); conditions: mouse; for Antiarrhythmic activity, ED50 symbol (failed screening dose) / mice protected of 5: 31 mg/kg i.p.; for Antiarrhythmic activity, ED50 symbol (failed screening dose): groups of 5 mice; for ED50: ip, 10 min, i.p., 10 min before chloroform, 95% confidence limits in parentheses, read-out: ED50 (95% C.L.)
Method: The antiarrhythmic activity of the compounds of this invention was determined in the experimental model described by J. W. Lawson (J. Pharmacol. Exper. Therap. 160:22-31, 1968). Test compounds were administered to groups of 5 mice at an intraperitoneal dose of 31 mg/kg. Ten minutes after injection each mouse was placed in a covered 300 ml glass beaker which contained cotton saturated with chloroform. The animal was observed closely and removed from the beaker immediately after respiratory arrest. The heart was quickly exposed by making an incision through the abdomen, diaphragm, thorax and pericardium for visual inspection of ventricular rate and rhythm. Ventricular contractions were counted for 30 seconds and animals with a rate not exceeding 100 beats per 30 seconds were considered protected from the ventricular arrhythmia produced by chloroform. Compounds protecting at least 3 of the 5 mice were subsequently tested at various doses and the results obtained were used to calculate the mean effective doses (ED50) and 95% confidence limits after the method of Litchfield and Wilcoxon (J. Pharmacol. Exper. Therap. 96:99-113, 1949). Table A presents the results obtained in the antiarrhythmic study.

[2] = test system: Systolic Blood Pressure; test: Antihypertensive activity: indirect systolic blood pressure in renal hypertensive rats; conditions: rat, 31 mg/kg p.o., * in table = statistically significant change from control
Method: Rats were made hypertensive by applying a figure of eight ligature to one kidney and removing the contralateral kidney two weeks later. At least four weeks after the second operation the animals were subjected to indirect systolic blood pressure measurements with an occluding cuff and pulse sensor system applied to the tail. Pressure measurements were made before and 1,2,4,6 and 8 hours after oral administration of the test compounds at a dose of 31 mg/kg. Each compound was tested in 5 or 10 rats. Statistical significance of differences between control and post treatment values was determined by Wilcoxon's signed rank test (F. Wilcoxon and R. A. Wilcox, Some Rapid Approximate Statistical Procedures, Lederle Laboratories, Pearl River, 1964).

[3] = test system: dog heart in situ; test: Antianginal activity: aortic-coronary sinus difference in oxygen (myocardial oxygen consumption) in anesthetized dogs; conditions: 1 mg/kg i.v.; for antianginal activity (conclusion in words): based upon comparison with nitroglycerin, named compounds 'particularly'
Method: Angina pectoris is a clinical condition of hypoxia that results from an imbalance in myocardial oxygen supply and demand. A drug reducing oxygen demand is useful in the treatment of angina pectoris, as has been the case with nitroglycerin and the beta-adrenergic blocking agents like propranolol (J. R. Paratt, Advan. Drug Res. 9:103-134, 1974). Accordingly,the antianginal activity of 2-substituted indoloquinolizines was evaluated by assessing their capacity to reduce oxygen consumption by the dog heart in situ. This method allows measurement of the difference in oxygen content of the arterial and venous blood.
Mongrel dogs were anesthetized with pentobarbital and cannulas inserted in the trachea and in a femoral vein for artificial respiration with room air and for injection of test compounds, respectively. Heparin was administered intravenously to prevent blood clotting. The chest was opened at the sternal midline and an additional cannula introduced in the coronary sinus. Samples of blood were obtained from the coronary sinus cannula and from the thoracic aorta by direct puncture of the vessel. Partial pressure of oxygen in the samples was determined with a blood gas analyzer. Test compounds were injected intravenously at a dose of 1 mg/kg; oxygen measurements were made before administration and at 1, 5, 10, 20, 30, 40, 50 and 60 min after administration. One animal was used per test compound. As the standard of comparison, nitroglycerin was administered to a test animal and measurements were made in a similar manner.
Differences between partial pressure values in arterial and venous blood samples were calculated for each measurement. Since coronary sinus blood is representative of the venous effluent from the heart, these differences reflect the consumption of oxygen by the myocardium. Thus, the decrease in arteriovenous oxygen difference produced by the compounds by this invention indicates a reduction in myocardial oxygen consumption.

| Compound | Antiarrhythmic activity, ED50 symbol (failed screening dose) [1] | Change in Systolic Blood Pressure at 1 hr [2] | Change in Systolic Blood Pressure at 2 hr [2] | Change in Systolic Blood Pressure at 4 hr [2] | Change in Systolic Blood Pressure at 6 hr [2] | Change in Systolic Blood Pressure at 8 hr [2] | Arterio-Venous Difference in Oxygen Partial Pressure at 1 min [3] | Arterio-Venous Difference in Oxygen Partial Pressure at 5 min [3] | Arterio-Venous Difference in Oxygen Partial Pressure at 10 min [3] | Arterio-Venous Difference in Oxygen Partial Pressure at 20 min [3] | Arterio-Venous Difference in Oxygen Partial Pressure at 30 min [3] | Arterio-Venous Difference in Oxygen Partial Pressure at 40 min [3] | Arterio-Venous Difference in Oxygen Partial Pressure at 50 min [3] | Arterio-Venous Difference in Oxygen Partial Pressure at 60 min [3] | antianginal activity (conclusion in words) [3] | ED50 [1] | mice protected of 5 [1] |
| --- | --- | --- | --- | --- | --- | --- | --- | --- | --- | --- | --- | --- | --- | --- | --- | --- | --- |
| FC(F)(F)c1cccc(NC2CCN3CCc4c(n(Cc5ccccc5)c5ccccc45)C3C2)c1 (stereo not drawn) [TR3633, 12-benzyl-1,2,3,4,6,7,12,12b-octahydroindolo-2-(3-trifluoromethylanilino)[2,3-a]quinolizine dihydrochloride] | * (Did not protect 3 of 5 mice and thus was not tested further.) | -10 mmHg | +2 mmHg | +8 mmHg | +4 mmHg | +13 mmHg | 31 mmHg | 35 mmHg | 39 mmHg | 39 mmHg | 36 mmHg | 36 mmHg | 36 mmHg | 38 mmHg | antianginal activity is seen |  |  |
| CC(=O)Nc1ccc(NC2CCN3CCc4c(n(Cc5ccccc5)c5ccccc45)C3C2)cc1.Cl.Cl (stereo not drawn) [TR3635, 2-(4-acetamidoanilino)-12-benzyl-1,2,3,4,6,7,12,12b-octahydroindolo-[2,3-a]quinolizine dihydrochloride] | * (Did not protect 3 of 5 mice and thus was not tested further.) | -23 mmHg | -23 mmHg | -27 mmHg | -16 mmHg | -10 mmHg | 24 mmHg | 24 mmHg | 24 mmHg | 23 mmHg | 24 mmHg | 26 mmHg | 25 mmHg | 26 mmHg |  |  |  |
| CC(C)NC1CCN2CCc3c(n(Cc4ccccc4)c4ccccc34)C2C1.Cl.Cl.O (stereo not drawn) [TR3687, 12-benzyl-2-isopropylamino-1,2,3,4,6,7,12,12b-octahydroindolo[2,3-a]quinolizine dihydrochloride monohydrate] |  | -2 mmHg | +16 mmHg | +18 mmHg | +18 mmHg | +9 mmHg | 15 mmHg | 22 mmHg | 23 mmHg | 20 mmHg | 20 mmHg | 20 mmHg | 23 mmHg | 23 mmHg | antianginal activity is seen | 19 mg/kg | at least 3 of 5 mice |
| Cl.Cl.NC1CCN2CCc3c(n(Cc4ccccc4)c4ccccc34)C2C1.O (stereo not drawn) [TR3698, 2-amino-12-benzyl-1,2,3,4,6,7,12,12b-octahydroindolo [2,3-a]-quinolizine dihydrochloride monohydrate] |  | -4 mmHg | -11 mmHg | -3 mmHg | +14 mmHg | +3 mmHg | 27 mmHg | 27 mmHg | 27 mmHg | 28 mmHg | 28 mmHg | 29 mmHg | 28 mmHg | 27 mmHg |  | 42 mg/kg | at least 3 of 5 mice |
| CC(=O)Nc1cccc(NC2CCN3CCc4c(n(Cc5ccccc5)c5ccccc45)C3C2)c1.O=C(O)C(=O)O (stereo not drawn) [TR3716, 2-(3-acetamidoanilino)-12-benzyl-1,2,3,4,6,7,12,12b-octahydroindolo[2,3-a]quinolizine oxalate] | * (Did not protect 3 of 5 mice and thus was not tested further.) | -49 mmHg | -42 mmHg |  | -17 mmHg | -6 mmHg | 22 mmHg | 27 mmHg | 29 mmHg | 28 mmHg | 27 mmHg | 28 mmHg | 28 mmHg | 28 mmHg |  |  |  |
| NS(=O)(=O)c1ccc(NC2CCN3CCc4c(n(Cc5ccccc5)c5ccccc45)C3C2)cc1 (stereo not drawn) [TR3718, 12-benzyl-1,2,3,4,6,7,12,12b-octahydro-(4-sulfonamidoanilino)-indolo[2,3-a]quinolizine hydrochloride] | * (Did not protect 3 of 5 mice and thus was not tested further.) | -5 mmHg | -16 mmHg | -21 mmHg | -5 mmHg | +5 mmHg | 20 mmHg | 17 mmHg | 17 mmHg | 16 mmHg | 16 mmHg | 16 mmHg | 18 mmHg | 18 mmHg |  |  |  |
